These results are taken from patent publication US20060233845A1, “Micro/nanoparticle obtained from lipid-containing marine organisms for use in pharmaceutics and cosmetics” (priority 2002, published 2006).

The test system of one test is MRSA. Briefly: MRSA growth in vitro. In kind it is cell-based, Staphylococcus aureus. Particulars: natural substances after the inventive method.
The conditions of test [1]: Kreitlow, Dissertation Greifswald 2000; cited from earlier work.

Consider `Cc1cc(O)cc2oc3cc(O)cc(O)c3c(=O)c12` [norlichexanthone], for which the “growth of MRSA in vitro” value in the test on MRSA is listed as “inhibit MRSA-growth in vitro”.

Turning to `CCCCC/C=C/C=C/C(O)CCCCCCCC(=O)O` (stereo not shown) [dimorphecolic acid], the antibacterial activity result in test [1] was “antibacterial activity”. In the case of `CC/C=C\C/C=C\C/C=C\CCCCCCCC(=O)O` [linolenic acid, Z,Z,Z-9,12,15-octadecatrienoic acid], the antibacterial activity result in test [1] is “antibacterial activity”.

Turning to `CCCCCC(O)/C=C/C=C\CCCCCCCC(=O)O` (stereo not shown) [coriolic acid], the antibacterial activity entry in test [1] was “antibacterial activity”.
